Assay results as given in article PMC6429214, “Design, Synthesis and Biological Evaluation of Isoxazole-Based CK1 Inhibitors Modified with Chiral Pyrrolidine Scaffolds” (Molecules, 2019).

Key:
Experiment in all cases: 33PanQinase panel
Format in all cases: biochemical
[1] = target: T1, CAMK2D (Homo sapiens, UniProt Q13557); settings: read-out: Residual Activity (%)
T1 construct: purchased ProQinase
Procedure, shortened: (§1)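 Measured value: residual activity (%) vs DMSO. Conditions: 1 µM compound, 1% DMSO, radiometric 33PanQinase format, 320 wild-type kinase panel.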

[2] = target: T2, SGK2 (Homo sapiens, UniProt Q9HBY8); settings: SGK2, 1 µM; read-out: Residual Activity (%)
T2 construct: purchased ProQinase
T2 sequence (Q9HBY8 whole entry): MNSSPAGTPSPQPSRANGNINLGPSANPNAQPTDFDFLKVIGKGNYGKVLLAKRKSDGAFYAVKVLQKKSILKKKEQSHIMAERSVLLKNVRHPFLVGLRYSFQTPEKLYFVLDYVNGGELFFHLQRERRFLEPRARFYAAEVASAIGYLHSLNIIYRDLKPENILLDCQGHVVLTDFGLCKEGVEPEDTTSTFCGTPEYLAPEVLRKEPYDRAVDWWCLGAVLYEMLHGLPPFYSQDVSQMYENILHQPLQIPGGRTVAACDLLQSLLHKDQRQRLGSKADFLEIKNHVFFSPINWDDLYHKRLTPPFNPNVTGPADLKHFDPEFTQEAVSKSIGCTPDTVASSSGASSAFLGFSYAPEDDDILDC
Procedure, shortened: as §1

[3] = target: T3, PKC-zeta (Homo sapiens, UniProt Q05513); settings: read-out: Residual Activity (%)
T3 construct: purchased ProQinase
T3 sequence (Q05513 whole entry): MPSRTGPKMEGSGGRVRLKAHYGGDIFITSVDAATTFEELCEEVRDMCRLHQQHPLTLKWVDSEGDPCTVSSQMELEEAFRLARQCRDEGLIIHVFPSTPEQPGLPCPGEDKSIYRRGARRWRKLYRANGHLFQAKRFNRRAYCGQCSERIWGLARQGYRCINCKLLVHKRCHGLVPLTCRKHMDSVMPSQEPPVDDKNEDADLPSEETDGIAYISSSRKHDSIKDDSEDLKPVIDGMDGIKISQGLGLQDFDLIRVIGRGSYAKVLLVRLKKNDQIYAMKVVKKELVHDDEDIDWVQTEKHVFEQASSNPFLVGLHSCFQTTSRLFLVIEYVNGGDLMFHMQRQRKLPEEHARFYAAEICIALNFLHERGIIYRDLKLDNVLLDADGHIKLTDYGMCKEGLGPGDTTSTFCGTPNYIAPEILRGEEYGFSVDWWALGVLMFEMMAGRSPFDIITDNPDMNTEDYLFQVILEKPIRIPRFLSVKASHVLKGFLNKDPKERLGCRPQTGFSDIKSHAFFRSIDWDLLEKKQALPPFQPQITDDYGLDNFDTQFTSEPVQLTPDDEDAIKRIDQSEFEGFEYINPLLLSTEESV
Procedure, shortened: as §1

[4] = target: T4, JAK1 aa583-1154 wt (Homo sapiens, UniProt P23458); settings: read-out: Residual Activity (%)
T4 construct: purchased ProQinase
Procedure, shortened: as §1

[5] = target: T5, SIK3 (Homo sapiens, UniProt Q9Y2K2); settings: SIK3, 1 µM; read-out: Residual Activity (%)
T5 construct: purchased ProQinase
Procedure, shortened: as §1

[6] = target: T6, ACV-RL1 (Homo sapiens, UniProt P37023); settings: ACV-RL1, 1 µM; read-out: Residual Activity (%)
T6 construct: purchased ProQinase
Procedure, shortened: as §1

[7] = target: T7, RET (Homo sapiens, UniProt P07949); settings: read-out: Residual Activity (%)
T7 construct: purchased ProQinase
Procedure, shortened: as §1

[8] = target: T8, PDGFR-beta (Homo sapiens, UniProt P09619); settings: read-out: Residual Activity (%)
T8 construct: purchased ProQinase
Procedure, shortened: as §1

[9] = target: T9, PAK2 (Homo sapiens, UniProt Q13177); settings: PAK2, 1 µM; read-out: Residual Activity (%)
T9 construct: purchased ProQinase
Procedure, shortened: as §1

[10] = target: T10, DDR2 (Homo sapiens, UniProt Q16832); settings: DDR2, 1 µM; read-out: Residual Activity (%)
T10 construct: purchased ProQinase
Procedure, shortened: as §1

[11] = target: T11, EPHA2 (Homo sapiens, UniProt P29317); settings: EPHA2, 1 µM; read-out: Residual Activity (%)
T11 construct: purchased ProQinase
Procedure, shortened: as §1

[12] = target: T12, MAP3K7/MAP3K7IP1 (Homo sapiens, UniProt O43318); settings: MAP3K7/MAP3K7IP1, 1 µM; read-out: Residual Activity (%)
T12 construct: purchased ProQinase
Procedure, shortened: as §1

[13] = target: T13, GSK3-beta (Homo sapiens, UniProt P49841); settings: read-out: Residual Activity (%)
T13 construct: purchased ProQinase
Procedure, shortened: as §1

[14] = target: T14, CDK5/p35NCK (Homo sapiens, UniProt Q00535); settings: read-out: Residual Activity (%)
T14 construct: purchased ProQinase
T14 sequence (Q00535 whole entry): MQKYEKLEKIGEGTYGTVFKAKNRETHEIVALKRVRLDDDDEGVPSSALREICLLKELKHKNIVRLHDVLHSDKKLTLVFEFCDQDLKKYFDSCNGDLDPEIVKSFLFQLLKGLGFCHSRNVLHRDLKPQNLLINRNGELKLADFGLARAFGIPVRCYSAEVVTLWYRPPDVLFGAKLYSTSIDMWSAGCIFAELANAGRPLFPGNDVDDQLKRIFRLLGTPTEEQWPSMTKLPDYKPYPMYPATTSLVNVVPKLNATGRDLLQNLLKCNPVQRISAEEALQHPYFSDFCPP
T14 sequence (Q15078 whole entry partner): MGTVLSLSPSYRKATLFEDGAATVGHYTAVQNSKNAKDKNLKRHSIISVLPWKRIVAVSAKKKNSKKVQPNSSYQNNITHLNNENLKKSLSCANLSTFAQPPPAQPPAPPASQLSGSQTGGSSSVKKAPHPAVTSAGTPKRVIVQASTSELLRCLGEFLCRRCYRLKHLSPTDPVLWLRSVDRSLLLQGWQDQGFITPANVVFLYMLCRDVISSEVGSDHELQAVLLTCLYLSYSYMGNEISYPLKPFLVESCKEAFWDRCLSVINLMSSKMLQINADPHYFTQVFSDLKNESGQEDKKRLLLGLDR
Procedure, shortened: as §1

[15] = target: T15, FES (Homo sapiens, UniProt P07332); settings: read-out: Residual Activity (%)
T15 construct: purchased ProQinase
Procedure, shortened: as §1

[16] = target: T16, FGR (Homo sapiens, UniProt P09769); settings: read-out: Residual Activity (%)
T16 construct: purchased ProQinase
T16 sequence (P09769 whole entry): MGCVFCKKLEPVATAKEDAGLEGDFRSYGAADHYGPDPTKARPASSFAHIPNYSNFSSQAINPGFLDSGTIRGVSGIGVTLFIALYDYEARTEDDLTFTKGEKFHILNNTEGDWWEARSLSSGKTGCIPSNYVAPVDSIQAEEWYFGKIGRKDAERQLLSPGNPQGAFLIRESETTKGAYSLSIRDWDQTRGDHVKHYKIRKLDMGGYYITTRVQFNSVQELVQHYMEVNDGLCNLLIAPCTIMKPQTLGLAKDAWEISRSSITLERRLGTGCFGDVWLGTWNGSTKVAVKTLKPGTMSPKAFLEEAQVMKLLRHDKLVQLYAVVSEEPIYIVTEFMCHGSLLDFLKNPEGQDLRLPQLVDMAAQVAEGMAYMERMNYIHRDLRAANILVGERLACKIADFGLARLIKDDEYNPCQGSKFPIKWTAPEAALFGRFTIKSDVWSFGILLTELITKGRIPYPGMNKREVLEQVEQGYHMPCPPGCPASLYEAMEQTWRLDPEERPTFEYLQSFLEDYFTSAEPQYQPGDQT
Procedure, shortened: as §1

[17] = target: T17, CLK2 (Homo sapiens, UniProt P49760); settings: CLK2, 1 µM; read-out: Residual Activity (%)
T17 construct: purchased ProQinase
Procedure, shortened: as §1

[18] = target: T18, TAOK3 (Homo sapiens, UniProt Q9H2K8); settings: TAOK3, 1 µM; read-out: Residual Activity (%)
T18 construct: purchased ProQinase
T18 sequence (Q9H2K8 whole entry): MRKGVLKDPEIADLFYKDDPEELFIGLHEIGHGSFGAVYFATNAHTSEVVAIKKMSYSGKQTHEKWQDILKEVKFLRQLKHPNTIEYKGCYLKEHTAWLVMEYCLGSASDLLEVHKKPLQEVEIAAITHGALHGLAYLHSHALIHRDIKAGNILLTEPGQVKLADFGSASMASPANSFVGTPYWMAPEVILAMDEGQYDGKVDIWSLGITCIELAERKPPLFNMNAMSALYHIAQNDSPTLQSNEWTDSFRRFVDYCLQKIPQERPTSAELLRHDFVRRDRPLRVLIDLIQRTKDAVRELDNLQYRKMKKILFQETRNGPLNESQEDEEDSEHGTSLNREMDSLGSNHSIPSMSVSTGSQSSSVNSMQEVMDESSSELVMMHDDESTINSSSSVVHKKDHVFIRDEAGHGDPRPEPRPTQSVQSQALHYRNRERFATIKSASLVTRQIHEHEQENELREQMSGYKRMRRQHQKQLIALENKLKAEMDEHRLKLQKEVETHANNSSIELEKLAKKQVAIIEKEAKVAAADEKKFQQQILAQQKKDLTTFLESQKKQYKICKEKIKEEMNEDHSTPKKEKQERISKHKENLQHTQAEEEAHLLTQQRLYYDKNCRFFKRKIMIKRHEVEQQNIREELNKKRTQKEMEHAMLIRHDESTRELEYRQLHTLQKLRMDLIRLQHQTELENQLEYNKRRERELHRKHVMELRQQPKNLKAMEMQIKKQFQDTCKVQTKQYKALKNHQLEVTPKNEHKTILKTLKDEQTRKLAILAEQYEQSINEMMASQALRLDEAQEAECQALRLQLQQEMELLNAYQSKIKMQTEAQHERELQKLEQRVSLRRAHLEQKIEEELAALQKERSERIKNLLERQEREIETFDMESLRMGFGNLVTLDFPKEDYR
Procedure, shortened: as §1

[19] = target: T19, KIT (Homo sapiens, UniProt P10721); settings: read-out: Residual Activity (%)
T19 construct: purchased ProQinase
Procedure, shortened: as §1

[20] = target: T20, PKC-eta (Homo sapiens, UniProt P24723); settings: read-out: Residual Activity (%)
T20 construct: purchased ProQinase
Procedure, shortened: as §1

[21] = target: T21, p38-beta (Homo sapiens, UniProt Q15759); settings: read-out: Residual Activity (%)
T21 construct: purchased ProQinase
T21 sequence (Q15759 whole entry): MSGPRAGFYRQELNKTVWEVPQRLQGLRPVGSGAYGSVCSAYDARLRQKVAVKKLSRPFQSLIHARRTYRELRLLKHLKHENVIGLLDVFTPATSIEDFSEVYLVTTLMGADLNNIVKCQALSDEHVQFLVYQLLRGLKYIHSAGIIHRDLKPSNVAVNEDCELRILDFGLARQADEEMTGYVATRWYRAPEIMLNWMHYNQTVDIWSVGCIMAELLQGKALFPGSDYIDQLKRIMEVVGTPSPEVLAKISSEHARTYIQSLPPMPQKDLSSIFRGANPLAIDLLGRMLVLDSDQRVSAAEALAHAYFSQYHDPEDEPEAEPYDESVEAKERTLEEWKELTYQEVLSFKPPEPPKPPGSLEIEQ
Procedure, shortened: as §1

[22] = target: T22, VRK1 (Homo sapiens, UniProt Q99986); settings: VRK1, 1 µM; read-out: Residual Activity (%)
T22 construct: purchased ProQinase
Procedure, shortened: as §1

[23] = target: T23, CSF1-R (Homo sapiens, UniProt P07333); settings: read-out: Residual Activity (%)
T23 construct: purchased ProQinase
Procedure, shortened: as §1

[24] = target: T24, VRK2 (Homo sapiens, UniProt Q86Y07); settings: VRK2, 1 µM; read-out: Residual Activity (%)
T24 construct: purchased ProQinase
Procedure, shortened: as §1

[25] = target: T25, CSK (Homo sapiens, UniProt P41240); settings: read-out: Residual Activity (%)
T25 construct: purchased ProQinase
T25 sequence (P41240 whole entry): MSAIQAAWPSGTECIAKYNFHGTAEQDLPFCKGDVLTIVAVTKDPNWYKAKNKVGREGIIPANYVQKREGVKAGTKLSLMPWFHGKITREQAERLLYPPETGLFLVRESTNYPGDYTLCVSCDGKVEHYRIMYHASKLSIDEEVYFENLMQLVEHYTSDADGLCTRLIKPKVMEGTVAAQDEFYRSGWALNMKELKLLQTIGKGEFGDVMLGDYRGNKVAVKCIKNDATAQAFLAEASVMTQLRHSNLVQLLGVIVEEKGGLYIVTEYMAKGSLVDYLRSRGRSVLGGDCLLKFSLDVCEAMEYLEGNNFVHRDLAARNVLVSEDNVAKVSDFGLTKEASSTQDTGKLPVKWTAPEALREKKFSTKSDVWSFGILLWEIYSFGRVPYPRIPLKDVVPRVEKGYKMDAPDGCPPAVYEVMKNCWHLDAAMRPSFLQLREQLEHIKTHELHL
Procedure, shortened: as §1

[26] = target: T26, SIK1 (Homo sapiens, UniProt P57059); settings: SIK1, 1 µM; read-out: Residual Activity (%)
T26 construct: purchased ProQinase
Procedure, shortened: as §1

[27] = target: T27, RAF1 Y340D/Y341D (untagged)** (Homo sapiens, UniProt P04049, Y340D/Y341D); settings: read-out: Residual Activity (%)
T27 construct: purchased ProQinase
T27 sequence (P04049 307-648 Y340D/Y341D limits assumed): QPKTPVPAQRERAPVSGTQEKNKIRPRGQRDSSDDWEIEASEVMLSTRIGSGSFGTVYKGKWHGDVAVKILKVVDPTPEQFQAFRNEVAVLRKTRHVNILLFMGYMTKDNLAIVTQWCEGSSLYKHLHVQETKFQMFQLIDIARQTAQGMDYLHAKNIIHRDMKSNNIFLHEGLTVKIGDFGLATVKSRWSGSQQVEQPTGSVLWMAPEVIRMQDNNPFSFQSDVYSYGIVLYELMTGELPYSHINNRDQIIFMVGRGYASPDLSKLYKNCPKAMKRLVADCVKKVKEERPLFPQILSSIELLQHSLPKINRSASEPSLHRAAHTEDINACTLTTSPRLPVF
Procedure, shortened: as §1

[28] = target: T28, LTK (Homo sapiens, UniProt P29376); settings: read-out: Residual Activity (%)
T28 construct: purchased ProQinase
Procedure, shortened: as §1

[29] = target: T29, INS-R (Homo sapiens, UniProt P06213); settings: read-out: Residual Activity (%)
T29 construct: purchased ProQinase
Procedure, shortened: as §1

[30] = target: T30, PIM1 (Homo sapiens, UniProt P11309); settings: PIM1, 1 µM; read-out: Residual Activity (%)
T30 construct: purchased ProQinase
T30 sequence (P11309 whole entry): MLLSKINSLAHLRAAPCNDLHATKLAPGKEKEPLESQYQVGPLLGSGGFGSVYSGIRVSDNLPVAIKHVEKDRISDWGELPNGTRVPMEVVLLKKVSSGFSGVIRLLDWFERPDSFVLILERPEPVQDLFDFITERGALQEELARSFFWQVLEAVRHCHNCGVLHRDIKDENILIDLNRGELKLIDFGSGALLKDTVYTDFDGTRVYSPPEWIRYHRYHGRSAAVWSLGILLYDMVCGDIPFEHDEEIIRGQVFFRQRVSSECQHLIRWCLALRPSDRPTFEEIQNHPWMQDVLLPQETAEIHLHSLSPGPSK
Procedure, shortened: as §1

[31] = target: T31, SLK (Homo sapiens, UniProt Q9H2G2); settings: read-out: Residual Activity (%)
T31 construct: purchased ProQinase
Procedure, shortened: as §1

T1 sequence (Q13557 whole entry): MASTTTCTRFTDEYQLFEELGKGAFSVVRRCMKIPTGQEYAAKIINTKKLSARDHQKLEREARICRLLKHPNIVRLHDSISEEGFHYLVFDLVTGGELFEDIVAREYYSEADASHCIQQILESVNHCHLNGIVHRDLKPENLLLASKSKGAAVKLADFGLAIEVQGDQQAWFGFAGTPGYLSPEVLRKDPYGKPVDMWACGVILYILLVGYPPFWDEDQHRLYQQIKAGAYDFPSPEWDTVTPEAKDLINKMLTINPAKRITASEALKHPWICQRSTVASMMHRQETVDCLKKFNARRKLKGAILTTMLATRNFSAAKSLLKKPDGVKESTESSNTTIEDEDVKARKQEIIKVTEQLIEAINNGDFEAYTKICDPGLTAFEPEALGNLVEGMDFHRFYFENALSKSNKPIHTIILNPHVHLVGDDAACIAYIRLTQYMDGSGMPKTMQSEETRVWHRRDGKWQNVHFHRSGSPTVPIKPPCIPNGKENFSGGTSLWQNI

SMILES: COc1ccc(-c2cc(C(=O)Nc3cc(-c4c(-c5ccc(F)cc5)noc4C(C)C)ccn3)n(CC3NCC(O)C3O)c2)cc1 (stereo not shown) [29d]
- remaining activity at 1 µM [1]: 100%
- remaining activity at 1 µM [2]: 101%
- remaining activity at 1 µM [3]: 123%
- remaining activity at 1 µM [4]: 104%
- remaining activity at 1 µM [5]: 104%
- remaining activity at 1 µM [6]: 115%
- remaining activity at 1 µM [7]: 97%
- remaining activity at 1 µM [8]: 91%
- remaining activity at 1 µM [9]: 107%
- remaining activity at 1 µM [10]: 95%
- remaining activity at 1 µM [11]: 103%
- remaining activity at 1 µM [12]: 95%
- remaining activity at 1 µM [13]: 100%
- remaining activity at 1 µM [14]: 100%
- remaining activity at 1 µM [15]: 120%
- remaining activity at 1 µM [16]: 107%
- remaining activity at 1 µM [17]: 116%
- remaining activity at 1 µM [18]: 96%
- remaining activity at 1 µM [19]: 102%
- remaining activity at 1 µM [20]: 113%
- remaining activity at 1 µM [21]: 74%
- remaining activity at 1 µM [22]: 117%
- remaining activity at 1 µM [23]: 108%
- remaining activity at 1 µM [24]: 92%
- remaining activity at 1 µM [25]: 115%
- remaining activity at 1 µM [26]: 92%
- remaining activity at 1 µM [27]: 103%
- remaining activity at 1 µM [28]: 98%
- remaining activity at 1 µM [29]: 101%
- remaining activity at 1 µM [30]: 94%
- remaining activity at 1 µM [31]: 114%
